# Measured values taken from the NIST ThermoML archive (doi:10.1021/je700690q).
# ± gives the expanded uncertainty stated by the source.
# Conditions: Liquid, Closed cell (Static) method
SMILES,vapor or sublimation pressure (364.52 K),also measured
CC(C)(C)O [2-methylpropan-2-ol],143.3 ± 1 kPa,
C/C=C/C [(E)-2-butene],1268.7 ± 5.7 kPa [middle of 5 runs],
CCC(C)O (stereo unspecified) [butan-2-ol],75.4 ± 0.9 kPa,
CO [methanol],267.6 ± 1.4 kPa,
CCCO [propan-1-ol],,vapor or sublimation pressure (364.53 K): 81.2 ± 0.9 kPa
CC(C)O [propan-2-ol],,vapor or sublimation pressure (364.51 K): 144.1 ± 1 kPa
